Active and inactive are the calls of the source.
How the values were obtained:
[1] = target: T1, Long-chain-fatty-acid--AMP ligase FadD28 (Mycobacterium tuberculosis, UniProt P9WQ59); assay: Fluorescence polarization aasay to screen for inhibitors that compete for the binding of FadD28 to a bisubstrate Measured in Biochemical System Using Plate Reader - 2147-01_Inhibitor_Dose_CherryPick_Activity.; format: functional, Mycobacterium tuberculosis H37Rv
T1 sequence (P9WQ59 whole entry): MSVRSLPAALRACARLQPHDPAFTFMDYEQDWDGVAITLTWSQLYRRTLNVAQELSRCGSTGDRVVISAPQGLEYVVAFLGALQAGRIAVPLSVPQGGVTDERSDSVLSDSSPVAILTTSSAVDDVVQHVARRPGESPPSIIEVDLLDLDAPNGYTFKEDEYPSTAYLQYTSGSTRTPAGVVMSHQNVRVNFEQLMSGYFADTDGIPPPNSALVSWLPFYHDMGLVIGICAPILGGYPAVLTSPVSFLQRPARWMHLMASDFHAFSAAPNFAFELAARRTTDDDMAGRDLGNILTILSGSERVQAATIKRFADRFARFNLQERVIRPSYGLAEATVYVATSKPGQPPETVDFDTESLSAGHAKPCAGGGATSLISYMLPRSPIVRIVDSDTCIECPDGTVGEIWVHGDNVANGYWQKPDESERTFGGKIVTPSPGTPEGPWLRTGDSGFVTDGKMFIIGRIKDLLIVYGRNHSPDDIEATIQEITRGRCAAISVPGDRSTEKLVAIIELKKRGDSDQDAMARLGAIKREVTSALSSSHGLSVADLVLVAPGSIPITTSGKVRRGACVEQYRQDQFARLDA

[2] = A Cell Based Secondary Assay To Explore Cytotoxicity of Compounds that Sensitize Mycobacterium Tuberculosis to Beta-Lactam Antibiotics.; format: functional
Caspase-6 = target: T2, Caspase-6 (Homo sapiens, UniProt P55212); assay: human caspase-6 inhibitors, dose response, biochemical, VEID-R110 fluorescence, cherry-pick (AID 720632)
T2 sequence (P55212 whole entry): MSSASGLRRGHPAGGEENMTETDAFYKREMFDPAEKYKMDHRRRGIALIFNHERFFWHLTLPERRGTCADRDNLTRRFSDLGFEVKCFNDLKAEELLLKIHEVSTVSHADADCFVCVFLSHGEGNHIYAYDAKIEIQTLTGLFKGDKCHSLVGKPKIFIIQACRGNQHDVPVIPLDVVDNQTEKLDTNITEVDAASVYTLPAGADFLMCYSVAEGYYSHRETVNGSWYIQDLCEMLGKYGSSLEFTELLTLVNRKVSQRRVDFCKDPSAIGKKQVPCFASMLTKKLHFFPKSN

[3] = target: T3, DNA repair and recombination protein RAD54-like (Homo sapiens, UniProt Q92698); assay: inhibitors of human RAD54 branch migration, confirmation, biochemical, fluorescence, cherry-picked samples, dose series (AID 651657); format: functional
T3 sequence (Q92698 whole entry): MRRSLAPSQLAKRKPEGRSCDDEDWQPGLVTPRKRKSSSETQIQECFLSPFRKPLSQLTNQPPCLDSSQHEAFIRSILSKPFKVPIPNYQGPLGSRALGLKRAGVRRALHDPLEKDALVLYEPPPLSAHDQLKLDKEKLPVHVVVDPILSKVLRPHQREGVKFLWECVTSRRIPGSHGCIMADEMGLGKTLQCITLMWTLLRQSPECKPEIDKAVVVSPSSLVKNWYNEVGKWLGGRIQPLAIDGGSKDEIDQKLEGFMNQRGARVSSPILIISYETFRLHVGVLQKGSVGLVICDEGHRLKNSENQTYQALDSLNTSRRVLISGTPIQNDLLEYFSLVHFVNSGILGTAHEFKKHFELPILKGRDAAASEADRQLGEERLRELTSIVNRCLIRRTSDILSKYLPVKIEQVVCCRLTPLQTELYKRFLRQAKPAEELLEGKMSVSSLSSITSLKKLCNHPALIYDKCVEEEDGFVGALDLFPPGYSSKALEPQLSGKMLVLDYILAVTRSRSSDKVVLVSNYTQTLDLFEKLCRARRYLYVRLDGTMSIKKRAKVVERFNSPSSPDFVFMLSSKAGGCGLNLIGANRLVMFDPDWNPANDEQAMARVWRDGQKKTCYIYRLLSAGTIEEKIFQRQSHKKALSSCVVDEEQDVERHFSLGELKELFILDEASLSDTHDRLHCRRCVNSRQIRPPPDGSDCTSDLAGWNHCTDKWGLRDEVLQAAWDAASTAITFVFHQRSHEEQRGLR

Estrogen receptor beta = Estrogen receptor beta (Homo sapiens, UniProt Q92731);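 also: recombinant ER-beta bound to coactivator SRC1 peptide in presence of estradiol agonist; inhibitors block coactivator peptide binding and lower the FRET signal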
Sequence of Estrogen receptor beta (Q92731 whole entry): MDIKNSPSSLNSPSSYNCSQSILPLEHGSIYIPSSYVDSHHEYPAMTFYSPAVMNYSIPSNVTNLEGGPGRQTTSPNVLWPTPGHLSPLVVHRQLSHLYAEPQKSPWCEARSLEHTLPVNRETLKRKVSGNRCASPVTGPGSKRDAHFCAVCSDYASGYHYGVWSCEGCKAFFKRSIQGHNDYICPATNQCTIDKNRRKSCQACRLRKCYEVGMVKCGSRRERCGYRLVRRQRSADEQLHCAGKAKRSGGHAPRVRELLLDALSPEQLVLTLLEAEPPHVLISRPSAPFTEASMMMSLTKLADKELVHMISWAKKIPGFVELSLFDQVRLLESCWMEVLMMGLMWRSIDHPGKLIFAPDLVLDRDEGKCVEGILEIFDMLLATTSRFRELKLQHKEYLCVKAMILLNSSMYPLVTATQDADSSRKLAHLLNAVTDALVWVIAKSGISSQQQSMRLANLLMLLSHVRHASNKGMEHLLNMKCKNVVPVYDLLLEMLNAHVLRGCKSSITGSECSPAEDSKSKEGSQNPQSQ

Estrogen receptor = target: T4, Estrogen receptor (Homo sapiens, UniProt P03372);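 also: potency for inhibiting coactivator peptide recruitment to the receptor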
T4 sequence (P03372 whole entry): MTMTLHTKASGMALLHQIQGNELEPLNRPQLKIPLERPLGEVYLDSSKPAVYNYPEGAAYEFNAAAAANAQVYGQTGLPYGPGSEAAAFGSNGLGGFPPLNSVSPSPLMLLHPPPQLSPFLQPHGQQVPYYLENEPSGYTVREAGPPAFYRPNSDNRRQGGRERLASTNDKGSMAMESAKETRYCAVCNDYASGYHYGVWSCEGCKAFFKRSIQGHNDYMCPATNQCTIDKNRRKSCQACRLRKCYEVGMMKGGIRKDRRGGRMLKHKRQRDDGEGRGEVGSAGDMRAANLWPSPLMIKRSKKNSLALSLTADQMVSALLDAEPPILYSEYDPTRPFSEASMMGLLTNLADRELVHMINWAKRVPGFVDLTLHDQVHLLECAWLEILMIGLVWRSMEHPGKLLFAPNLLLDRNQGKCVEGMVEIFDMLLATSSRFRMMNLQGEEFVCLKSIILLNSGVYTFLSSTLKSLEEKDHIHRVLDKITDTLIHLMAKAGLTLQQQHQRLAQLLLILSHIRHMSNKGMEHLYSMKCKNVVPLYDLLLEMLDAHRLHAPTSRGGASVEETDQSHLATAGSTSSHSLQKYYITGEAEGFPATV

Aspartyl aminopeptidase = target: T5, Aspartyl aminopeptidase (Plasmodium falciparum 3D7, UniProt Q8I2J3); assay: Counterscreen for inhibitors of M1 and M17 aminopeptidases: QFRET-based biochemical high throughput dose response assay for inhibitors of the Plasmodium falciparum M18 Aspartyl Aminopeptidase (PFM18AAP). [Related PubChem assays: 1619 (Screening assay (M17LAP inhibitors).), 1445 (Screening assay (M1AAP inhibitors).)]
T5 sequence (Q8I2J3 whole entry): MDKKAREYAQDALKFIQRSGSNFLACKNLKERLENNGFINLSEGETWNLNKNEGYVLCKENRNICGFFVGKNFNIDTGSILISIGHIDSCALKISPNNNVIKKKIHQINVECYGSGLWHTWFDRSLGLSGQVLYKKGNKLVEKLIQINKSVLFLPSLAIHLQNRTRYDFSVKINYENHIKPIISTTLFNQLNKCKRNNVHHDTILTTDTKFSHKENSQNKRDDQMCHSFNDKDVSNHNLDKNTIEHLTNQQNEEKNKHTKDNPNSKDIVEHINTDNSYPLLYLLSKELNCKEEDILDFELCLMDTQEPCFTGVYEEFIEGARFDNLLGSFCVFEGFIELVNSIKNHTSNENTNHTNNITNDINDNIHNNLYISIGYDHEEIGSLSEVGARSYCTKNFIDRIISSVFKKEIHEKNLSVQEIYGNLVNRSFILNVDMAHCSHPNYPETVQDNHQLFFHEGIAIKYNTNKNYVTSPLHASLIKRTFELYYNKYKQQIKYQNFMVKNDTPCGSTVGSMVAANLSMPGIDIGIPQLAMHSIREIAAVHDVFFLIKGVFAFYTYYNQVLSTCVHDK

Procathepsin L = Procathepsin L (Homo sapiens, UniProt P07711); assay: cathepsin L inhibitors, dose response, counter-screen for M1/M17 aminopeptidase inhibitor project, biochemical, QFRET, 1536-well (AID 2214)
Sequence of Procathepsin L (P07711 whole entry): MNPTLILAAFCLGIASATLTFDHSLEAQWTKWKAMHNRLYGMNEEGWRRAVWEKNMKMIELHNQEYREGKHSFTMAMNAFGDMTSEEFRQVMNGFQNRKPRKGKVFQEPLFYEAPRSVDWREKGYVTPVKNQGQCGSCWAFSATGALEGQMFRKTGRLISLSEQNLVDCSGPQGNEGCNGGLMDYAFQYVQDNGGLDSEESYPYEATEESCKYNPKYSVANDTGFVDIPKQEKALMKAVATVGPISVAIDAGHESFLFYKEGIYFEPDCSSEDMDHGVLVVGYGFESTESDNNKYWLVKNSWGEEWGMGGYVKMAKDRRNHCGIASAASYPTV

Leucine aminopeptidase = target: T6, Leucine aminopeptidase (Plasmodium falciparum 3D7, UniProt Q8IL11); assay: P. falciparum M17LAP inhibitors, primary screen, biochemical, fluorogenic H-Leu-NHMec substrate, 1536-well (AID 1619); format: functional
T6 sequence (Q8IL11 whole entry): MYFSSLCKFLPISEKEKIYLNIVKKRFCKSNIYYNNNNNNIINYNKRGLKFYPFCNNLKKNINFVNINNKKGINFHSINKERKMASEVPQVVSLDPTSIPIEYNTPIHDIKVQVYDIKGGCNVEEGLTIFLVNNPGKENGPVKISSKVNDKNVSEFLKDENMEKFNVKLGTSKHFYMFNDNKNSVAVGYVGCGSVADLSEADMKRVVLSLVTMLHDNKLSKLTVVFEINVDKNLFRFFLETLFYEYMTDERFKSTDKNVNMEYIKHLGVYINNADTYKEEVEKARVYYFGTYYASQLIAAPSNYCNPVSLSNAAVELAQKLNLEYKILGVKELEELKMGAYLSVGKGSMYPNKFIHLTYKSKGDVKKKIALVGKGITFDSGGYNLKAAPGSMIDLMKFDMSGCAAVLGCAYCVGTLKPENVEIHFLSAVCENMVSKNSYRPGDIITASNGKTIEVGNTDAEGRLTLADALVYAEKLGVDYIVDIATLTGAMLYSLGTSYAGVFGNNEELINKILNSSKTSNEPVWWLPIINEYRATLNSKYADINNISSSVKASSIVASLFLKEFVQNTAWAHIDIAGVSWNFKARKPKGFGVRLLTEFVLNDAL

[4] = target: T7, Ubiquitin-conjugating enzyme E2 N (Homo sapiens, UniProt P61088); format: functional;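 also: Dose-response confirmation in a TR-FRET assay detecting UBC13-driven polyubiquitin chain formation, inhibition measured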
T7 sequence (P61088 whole entry): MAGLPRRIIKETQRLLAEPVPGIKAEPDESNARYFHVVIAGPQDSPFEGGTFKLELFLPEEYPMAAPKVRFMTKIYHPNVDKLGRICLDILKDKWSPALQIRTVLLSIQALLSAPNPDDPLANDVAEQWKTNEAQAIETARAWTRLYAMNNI

[5] = Luminescence Cell-Based Dose Retest to Confirm Inhibitors of Cancer Stem Cells. [Related pubchem assays (depositor defined):AID2717, AID2721]; format: functional; details: Homo sapiens
[6] = target: Disintegrin and metalloproteinase domain-containing protein 17 (Homo sapiens, UniProt P78536); assay: ADAM17 protease inhibitors, dose response, counter-screen for ADAM10 exosite inhibitor project, biochemical, quenched FRET substrate (AID 743253)
Sequence of Disintegrin and metalloproteinase domain-containing protein 17 (P78536 whole entry, the tested form may be a part): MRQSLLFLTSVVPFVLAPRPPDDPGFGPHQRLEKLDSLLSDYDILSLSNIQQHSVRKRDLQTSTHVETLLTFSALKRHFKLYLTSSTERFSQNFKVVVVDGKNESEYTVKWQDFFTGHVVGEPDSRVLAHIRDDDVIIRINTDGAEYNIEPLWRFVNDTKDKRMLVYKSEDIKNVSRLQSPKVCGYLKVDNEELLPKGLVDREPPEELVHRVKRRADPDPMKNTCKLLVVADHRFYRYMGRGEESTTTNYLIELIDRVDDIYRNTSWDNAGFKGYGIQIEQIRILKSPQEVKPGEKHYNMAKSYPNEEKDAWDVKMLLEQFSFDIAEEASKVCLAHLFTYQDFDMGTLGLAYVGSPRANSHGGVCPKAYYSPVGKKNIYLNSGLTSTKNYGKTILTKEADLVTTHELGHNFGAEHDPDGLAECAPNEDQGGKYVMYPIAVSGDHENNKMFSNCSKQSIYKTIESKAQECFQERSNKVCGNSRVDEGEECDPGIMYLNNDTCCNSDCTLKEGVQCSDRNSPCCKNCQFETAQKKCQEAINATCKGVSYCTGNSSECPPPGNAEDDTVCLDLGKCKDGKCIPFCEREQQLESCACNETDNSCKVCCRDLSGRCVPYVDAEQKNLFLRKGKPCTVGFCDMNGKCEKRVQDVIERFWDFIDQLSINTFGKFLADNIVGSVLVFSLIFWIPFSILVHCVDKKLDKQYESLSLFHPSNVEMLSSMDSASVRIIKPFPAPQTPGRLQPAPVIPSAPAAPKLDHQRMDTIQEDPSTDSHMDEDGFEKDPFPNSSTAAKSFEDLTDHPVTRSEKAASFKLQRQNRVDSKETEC

## O=C(NN1C(=O)/C(=C/c2cccc(O)c2)SC1=S)c1ccccc1O
[1]
  AC50: 66.2 µM (active)

## CC1(C)Cc2c(C#N)c(SCc3ccccc3)nc(N3CCOCC3)c2CO1
[2]
  CC50: > 40 µM (active)

## O=C(O)[C@@H]1[C@@H](CO)[C@@H]2Cn3c(ccc(/C=C/c4ccccc4)c3=O)[C@@H]2N1Cc1ccc2c(c1)OCO2
Caspase-6
  AC50: 41.3 µM (active)

## CCCCN(C)CCN=C(S)Nc1ccc2nc(N3CCN(CC)CC3)cc(C)c2c1
[3]
  AC50: 16.2 µM (active)

## COC(=O)c1cnn2c(C(F)(F)F)cc(-c3ccco3)nc12
Estrogen receptor beta
  IC50: 25.9 µM (active)
Estrogen receptor
  IC50: 42.4 µM (not active)

## COc1ccc(/C=C2\SC(=O)N(CC(=O)Nc3cccnc3)C2=O)cc1OC
[1]
  AC50: 32 µM (inactive)

## Cc1nc2c(C(=O)NCCC3=CCCCC3)cnn2c(O)c1Cl
[1]
  AC50: > 100 µM (inactive)

## CCOc1ccc(NC(=O)Nc2cccs2)cc1
Aspartyl aminopeptidase
  IC50: > 73.5 µM (not active)
Procathepsin L
  IC50: > 59.6 µM (not active)
Leucine aminopeptidase
  IC50: 3.22 µM (active)

## O=C(NC1CCS(=O)(=O)C1)c1c(NC(=O)C2COc3ccccc3O2)sc2c1CCCC2 (stereo unspecified)
Estrogen receptor
  IC50: > 50 µM (not active)

## O=C(O)C1CC=CCC1C(=O)Nc1cc(Cl)ccc1Cl (stereo unspecified)
Aspartyl aminopeptidase
  IC50: > 73.5 µM (not active)
Procathepsin L
  IC50: > 59.6 µM (not active)
Leucine aminopeptidase
  IC50: 6.22 µM (active)

## Cn1c(=O)c(C(=O)COC(=O)c2cc(C3CC3)nc3ccccc23)c(N)n(Cc2ccccc2)c1=O
[2]
  CC50: > 40 µM (active)

## CC(N)C(=O)NC(C(=O)NC(C)C(=O)Nc1cccc2ccccc12)C(C)C (stereo unspecified)
Caspase-6
  AC50: 10.7 µM (active)

## Cc1ccc(C(=O)Nc2ccc(N3CCN(C(=O)c4cccs4)CC3)cc2)c(Cl)c1
[2]
  CC50: > 40 µM (active)

## COc1cc(SC)ccc1C(=O)OC(C)C(=O)NC1CCCC1 (stereo unspecified)
Caspase-6
  AC50: 24.6 µM (active)

## COc1cc(NC(=O)CSc2nnc3c(C)cc4cc(C)cc(C)c4n23)c(C(=O)O)cc1OC
Aspartyl aminopeptidase
  IC50: > 73.5 µM (not active)
Procathepsin L
  IC50: > 59.6 µM (not active)
Leucine aminopeptidase
  IC50: 6 µM (active)

## CC1CCCCN1CCNC(=O)c1cc2c(=O)n(C)c3ccccc3c2n1C (stereo unspecified)
[4]
  IC50: > 20 µM (inactive)
[3]
  AC50: 33 µM (active)

## O=C1CC(N(CCc2ccccc2)C(=S)Nc2cc(Cl)ccc2Cl)C(=O)N1c1c(Cl)cccc1Cl (stereo unspecified)
[5]
  AC50: 1.61 µM (active)
[6]
  IC50: > 69.5 µM (inactive)
